# Data: patent US6410054B1, “Immediate release eplerenone compositions” (G. D. Searle & Co., priority 1998, dated 2002)
# Legend:
# [1] = ADME study of [14C]eplerenone oral solution: excretion in urine, feces, breath; format: in vivo, humans; conditions: 100 mg [14C]eplerenone oral solution, mean
# Procedure: (§1) An open-label, single dose study was employed to evaluate the absorption, distribution, metabolism and elimination profile of a single 100 mg dose of an oral solution of eplerenone.
# (§2) The study employed eight healthy male humans. Each subject received a single 100 mg oral dose of a solution of [^14C]eplerenone (specific activity 0.75 μCi/mg). Plasma, saliva, breath, urine and fecal samples were collected at predetermined intervals and analyzed for sample radioactivity and the concentration of eplerenone and its open lactone ring form. Safety was determined on the basis of laboratory tests, vital signs, and the occurrence and types of adverse events.
# (§3) The subjects, who underwent an overnight food fast prior to administration of the dose, received at 0800 hours a single 100 mg oral dose of an aqueous oral solution of radiolabeled eplerenone reconstituted in 80 mL of an apple juice/hydroxypropyl-β-cyclodextrin mixture. The subjects swallowed about 200 mL of water one, two and three hours post dosing.
# (§4) Blood samples were collected at −0.5 (predose), 0.5, 1, 1.5, 2, 2.5, 3, 4, 6, 8, 12, 16, 24, 36, 48, 72 and 96 hours post dose. […] Individual fecal samples were collected beginning immediately after dosing and continuing through 0800 hours on day 8. In addition, one predose fecal sample was provided. Saliva samples were taken at 0.5 hour predose and at 0.5, 1, 2, 4, 6, 12, and 24 hours postdose. Breath samples were taken at 0.5 hour predose and at 1, 2, 3, 4, 6, 8, 12, 24, 36, 48 and 72 hours postdose.
# [2] = ADME study of [14C]eplerenone oral solution: plasma, whole blood, saliva pharmacokinetics; format: in vivo, humans; conditions: for Plasma Concentration: 100 mg oral solution of [14C]eplerenone
# Procedure: as §1, §2, §3, §4
# [3] = Single dose study: plasma pharmacokinetics of eplerenone, open lactone ring form, spironolactone; conditions: open ring lactone in plasma
# Procedure: The pharmacokinetics, safety and antialdosterone activity of single 10, 50, 100, 300 and 1000 mg oral doses of eplerenone were evaluated in a single-center, randomized, double-blind, placebo-controlled study.
# The study employed seven parallel dose groups of eight healthy male humans.
# The eplerenone capsules administered corresponded to the capsules (or combinations of the capsules) disclosed in Examples 4, 5, 7 and 8 above. The placebo was a conventional capsule containing lactose. […] The fludrocortisone used in the study consisted of commercially available fludrocortisone tablets (Florinef®, Squibb BV).
# The subjects, who underwent a ten hour food fast prior to administration of the dose, received a single oral dose of one of the study medications together with about 180 mL of water at 0800 hours. […] Each dose of fludrocortisone was administered with 150 mL of water except for the 1.0 mg dose which was administered with 200 mL of water.
# The plasma samples collected from subjects dosed with eplerenone were assayed for concentrations of eplerenone and the open lactone ring form of eplerenone. […] A subset of plasma samples was also assayed for testosterone levels. The urine collected was analyzed to determine concentrations and amounts of eplerenone and the open lactone ring form of eplerenone, the amount of sodium and potassium excreted, and the urinary log10 (sodium/potassium) ratio.
# [4] = plasma, 100 mg eplerenone oral solution, single dose
structure (smiles),measurement,setting,value
COC(=O)C1CC2=CC(=O)CCC2(C)C23OC2CC2(C)C(CCC2(O)CCC(=O)O)C13 (stereo not drawn) [Open Ring Lactone],dose excreted in feces as the named form,[1],2.46%
same,dose excreted in urine as the named form,[1],4.98%
same,Plasma Concentration,[2]; 0.5 hours after dosing,63.2 ng/mL
same,Plasma Concentration,[2]; 1.0 hours after dosing,78.0 ng/mL
same,Plasma Concentration,[2]; 1.5 hours after dosing,70.8 ng/mL
same,Plasma Concentration,[2]; 2.0 hours after dosing,59.9 ng/mL
same,Plasma Concentration,[2]; 2.5 hours after dosing,51.0 ng/mL
same,Plasma Concentration,[2]; 3.0 hours after dosing,46.9 ng/mL
same,Plasma Concentration,[2]; 4.0 hours after dosing,41.9 ng/mL
same,Plasma Concentration,[2]; 6.0 hours after dosing,23.0 ng/mL
same,Plasma Concentration,[2]; 8.0 hours after dosing,13.0 ng/mL
same,Plasma Concentration,[2]; 48.0 hours after dosing,0 ng/mL
same,Plasma Concentration,[2]; 72.0 hours after dosing,0 ng/mL
same,Plasma Concentration,[2]; −0.5 hours after dosing,0 ng/mL
same,AUC(0-96),[2]; [4],352.2 (ng/mL) hr
same,Mean Residence Time,[2]; [4],3.4 h
same,Oral Clearance,[2]; [4],306.3 L/h
same,T1/2,[2]; [4],3.1 h
same,Tmax,[2]; [4],1.1 h
same,AUC(0-96),[3]; 50 mg Epl. single oral dose,142.8 (ng/mL) hr
same,Mean Residence Time,[3]; 50 mg Epl. single oral dose,2.8 h
same,Oral Clearance,[3]; 50 mg Epl. single oral dose,491.3 L/h
same,T1/2,[3]; 50 mg Epl. single oral dose,2.7 h
same,Tmax,[3]; 50 mg Epl. single oral dose,1.0 h
same,AUC(0-96),[3]; 100 mg Epl. single oral dose,246.8 (ng/mL) hr
same,Mean Residence Time,[3]; 100 mg Epl. single oral dose,3.3 h
same,Oral Clearance,[3]; 100 mg Epl. single oral dose,445.2 L/h
same,T1/2,[3]; 100 mg Epl. single oral dose,2.7 h
same,Tmax,[3]; 100 mg Epl. single oral dose,1.1 h
same,AUC(0-96),[3]; 300 mg Epl. single oral dose,1065.1 (ng/mL) hr
same,Mean Residence Time,[3]; 300 mg Epl. single oral dose,4.2 h
same,Oral Clearance,[3]; 300 mg Epl. single oral dose,299.8 L/h
same,T1/2,[3]; 300 mg Epl. single oral dose,2.8 h
same,Tmax,[3]; 300 mg Epl. single oral dose,1.3 h
same,AUC(0-96),[3]; 1000 mg Epl. single oral dose,3483.5 (ng/mL) hr
same,Mean Residence Time,[3]; 1000 mg Epl. single oral dose,5.7 h
same,Oral Clearance,[3]; 1000 mg Epl. single oral dose,330.7 L/h
same,T1/2,[3]; 1000 mg Epl. single oral dose,2.6 h
same,Tmax,[3]; 1000 mg Epl. single oral dose,2.5 h
